Laboratory results from US20220088016A1, “CANCER TREATMENT USING MULTI-TARGETED KINASE INHIBITOR IN COMBINATION OF PROTEIN KINASE BIOMARKERS” (ZHEJIANG CROWNMAB BIOTECH CO. LTD., priority 2019, published 2022).
pIC50: −log10 of the molar value.

Legend:
[1] = test system: FLT3 (ITD, D835V); test: Kinase profiling; format: binding
[2] = target: GRK2 (Homo sapiens, UniProt P25098); test: Kinase profiling; format: binding; details: read-out: % Ctrl @ 1000 nM
[3] = target: WNK3 (Homo sapiens, UniProt Q9BYP7); test: Kinase profiling; format: binding; details: read-out: % Ctrl @ 1000 nM
[4] = target: PRKCD (Homo sapiens, UniProt Q05655); test: Kinase profiling; format: binding; details: read-out: % Ctrl @ 1000 nM
[5] = target: CDK3 (Homo sapiens, UniProt Q00526); test: Kinase profiling; format: binding; details: read-out: % Ctrl @ 1000 nM
[6] = target: PIP5K1C (Homo sapiens, UniProt O60331); test: Kinase profiling; format: binding; details: read-out: % Ctrl @ 1000 nM
[7] = target: INSR (Homo sapiens, UniProt P06213); test: Kinase profiling; format: binding; details: read-out: % Ctrl @ 1000 nM
[8] = target: T1, NDR2 (Homo sapiens, UniProt Q9Y2H1); test: Kinase profiling; format: binding; details: read-out: % Ctrl @ 1000 nM
T1 construct: T7 phage fusion (said for most assays); made in house

[9] = target: ERN1 (Homo sapiens, UniProt O75460); test: Kinase profiling; format: binding; details: read-out: % Ctrl @ 1000 nM
[10] = target: PRKD3 (Homo sapiens, UniProt O94806); test: Kinase profiling; format: binding; details: read-out: % Ctrl @ 1000 nM
[11] = target: T2, CHK1 (h) (Homo sapiens, UniProt O14757); test: Kinase IC50 (Eurofins KinaseProfiler); format: biochemical
T2 construct: purchased Eurofins (KinaseProfiler service)
Procedure: (§1) CBT-102 were tested against each of the selected kinases using the Eurofins standard KinaseProfder assays and following the relevant standard operating procedures. The required volume of the 50× stock of test compound (CBT-102) was added to the assay well, before a reaction mix containing the enzyme and substrate was added. The reaction was initiated by the addition of ATP at the selected concentration. There was no pre-incubation of the compound with the enzyme/substrate mix prior to ATP addition.
(§2) Data are handled using a custom-built in-house analysis software. Results are expressed as kinase activity remaining, as a percentage of the DMSO control. This is calculated using the following formula: […]
(§3) For IC50 determinations, data are analyzed using XLFit version 5.3 (ID Business Solutions).

[12] = target: T3, CDKL2 (h) (Homo sapiens, UniProt Q92772); test: Kinase IC50 (Eurofins KinaseProfiler); format: biochemical
T3 construct: purchased Eurofins (KinaseProfiler service)
Procedure: as §1, §2, §3

[13] = target: T4, B-Raf (V599E) (h) (Homo sapiens, UniProt P15056, V600E); test: Kinase IC50 (Eurofins KinaseProfiler); format: biochemical
T4 construct: purchased Eurofins
Procedure: as §1, §2, §3

[14] = target: T5, Plk1 (h) (Homo sapiens, UniProt P53350); test: Kinase IC50 (Eurofins KinaseProfiler); format: biochemical
T5 construct: purchased Eurofins
Procedure: as §1, §2, §3

[15] = target: T6, Flt4 (h) (Homo sapiens, UniProt P35916); test: Kinase IC50 (Eurofins KinaseProfiler); format: biochemical
T6 construct: purchased Eurofins (KinaseProfiler service)
Procedure: as §1, §2, §3

[16] = target: T7, FGFR4 (h) (Homo sapiens, UniProt P22455); test: Kinase IC50 (Eurofins KinaseProfiler); format: biochemical
T7 construct: purchased Eurofins (KinaseProfiler service)
Procedure: as §1, §2, §3

[17] = target: T8, cKit (V654A) (h) (Homo sapiens, UniProt P10721, V654A); test: Kinase IC50 (Eurofins KinaseProfiler); format: biochemical
T8 construct: purchased Eurofins (KinaseProfiler service)
Procedure: as §1, §2, §3

[18] = target: T9, EGFR (h) (Homo sapiens, UniProt P00533); test: Kinase IC50 (Eurofins KinaseProfiler); format: biochemical
T9 construct: purchased Eurofins (KinaseProfiler service)
Procedure: as §1, §2, §3

[19] = target: T10, BRK (h) (Homo sapiens, UniProt Q13882); test: Kinase IC50 (Eurofins KinaseProfiler); format: biochemical
T10 construct: purchased Eurofins
Procedure: as §1, §2, §3

[20] = target: T11, Tie2 (h) (Homo sapiens, UniProt Q02763); test: Kinase IC50 (Eurofins KinaseProfiler); format: biochemical
T11 construct: purchased Eurofins
Procedure: as §1, §2, §3

[21] = target: T12, Ret (h) (Homo sapiens, UniProt P07949); test: Kinase IC50 (Eurofins KinaseProfiler); format: biochemical
T12 construct: purchased Eurofins
Procedure: as §1, §2, §3

[22] = target: T13, EphB2 (h) (Homo sapiens, UniProt P29323); test: Kinase IC50 (Eurofins KinaseProfiler); format: biochemical
T13 construct: purchased Eurofins (KinaseProfiler service)
Procedure: as §1, §2, §3

[23] = target: T14, PDGFRβ (h) (Homo sapiens, UniProt P09619); test: Kinase IC50 (Eurofins KinaseProfiler); format: biochemical
T14 construct: purchased Eurofins (KinaseProfiler service)
Procedure: as §1, §2, §3

[24] = target: T15, Flt1 (h) (Homo sapiens, UniProt P17948); test: Kinase IC50 (Eurofins KinaseProfiler); format: biochemical
T15 construct: purchased Eurofins (KinaseProfiler service)
Procedure: as §1, §2, §3

[25] = target: T16, RIPK2 (h) (Homo sapiens, UniProt O43353); test: Kinase IC50 (Eurofins KinaseProfiler); format: biochemical
T16 construct: purchased Eurofins
Procedure: as §1, §2, §3

[26] = target: T17, ErbB4 (h) (Homo sapiens, UniProt Q15303); test: Kinase IC50 (Eurofins KinaseProfiler); format: biochemical
T17 construct: purchased Eurofins (KinaseProfiler service)
Procedure: as §1, §2, §3

[27] = target: T18, Lck (h) (Homo sapiens, UniProt P06239); test: Kinase IC50 (Eurofins KinaseProfiler); format: biochemical
T18 construct: purchased Eurofins (KinaseProfiler service)
Procedure: as §1, §2, §3

[28] = target: T19, MEK2 (Homo sapiens, UniProt P36507); test: Kinase profiling; format: binding; details: read-out: % Ctrl @ 1000 nM
T19 construct: T7 phage fusion (stated for most kinases of the panel only); made in house; host or cells: T7 phage in E. coli (BL21-derived) or HEK-293 cells

[29] = target: T20, NEK5 (Homo sapiens, UniProt Q6P3R8); test: Kinase profiling; format: binding; details: read-out: % Ctrl @ 1000 nM
T20 construct: T7 phage fusion (said for most assays); made in house

[30] = target: KIT (A829P) (Homo sapiens, UniProt P10721, A829P); test: Kinase profiling; format: binding; details: read-out: % Ctrl @ 1000 nM
[31] = target: DMPK (Homo sapiens, UniProt Q09013); test: Kinase profiling; format: binding; details: read-out: % Ctrl @ 1000 nM
[32] = target: CDKL2 (Homo sapiens, UniProt Q92772); test: Kinase profiling; format: binding; details: read-out: % Ctrl @ 1000 nM
[33] = target: T21, MEK4 (Homo sapiens, UniProt P45985); test: Kinase profiling; format: binding; details: read-out: % Ctrl @ 1000 nM
T21 construct: T7 phage fusion (stated for most kinases of the panel only); made in house; host or cells: T7 phage in E. coli (BL21-derived) or HEK-293 cells

[34] = target: PAK4 (Homo sapiens, UniProt O96013); test: Kinase profiling; format: binding; details: read-out: % Ctrl @ 1000 nM
[35] = target: SIK (Homo sapiens, UniProt P57059); test: Kinase profiling; format: binding; details: read-out: % Ctrl @ 1000 nM

T20 sequence (Q6P3R8 whole entry, the tested form may be a part): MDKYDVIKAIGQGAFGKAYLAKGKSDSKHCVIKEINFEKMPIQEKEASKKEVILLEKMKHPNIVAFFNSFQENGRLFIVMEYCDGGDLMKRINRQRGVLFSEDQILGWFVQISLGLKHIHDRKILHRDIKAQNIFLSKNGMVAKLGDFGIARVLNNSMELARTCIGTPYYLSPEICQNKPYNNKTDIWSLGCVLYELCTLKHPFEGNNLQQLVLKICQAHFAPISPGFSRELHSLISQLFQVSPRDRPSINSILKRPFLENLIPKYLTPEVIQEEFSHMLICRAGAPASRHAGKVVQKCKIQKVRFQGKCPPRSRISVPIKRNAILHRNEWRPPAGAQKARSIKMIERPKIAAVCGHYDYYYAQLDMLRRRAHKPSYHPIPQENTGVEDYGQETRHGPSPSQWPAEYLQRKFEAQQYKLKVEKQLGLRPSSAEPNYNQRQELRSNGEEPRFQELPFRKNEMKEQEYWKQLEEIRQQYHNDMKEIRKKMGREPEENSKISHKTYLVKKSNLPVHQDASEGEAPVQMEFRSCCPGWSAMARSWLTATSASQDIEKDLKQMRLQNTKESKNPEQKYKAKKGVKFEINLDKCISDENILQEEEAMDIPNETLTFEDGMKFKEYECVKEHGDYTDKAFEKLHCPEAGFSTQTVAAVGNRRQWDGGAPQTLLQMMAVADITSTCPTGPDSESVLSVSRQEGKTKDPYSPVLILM
T11 sequence (Q02763 23-1124): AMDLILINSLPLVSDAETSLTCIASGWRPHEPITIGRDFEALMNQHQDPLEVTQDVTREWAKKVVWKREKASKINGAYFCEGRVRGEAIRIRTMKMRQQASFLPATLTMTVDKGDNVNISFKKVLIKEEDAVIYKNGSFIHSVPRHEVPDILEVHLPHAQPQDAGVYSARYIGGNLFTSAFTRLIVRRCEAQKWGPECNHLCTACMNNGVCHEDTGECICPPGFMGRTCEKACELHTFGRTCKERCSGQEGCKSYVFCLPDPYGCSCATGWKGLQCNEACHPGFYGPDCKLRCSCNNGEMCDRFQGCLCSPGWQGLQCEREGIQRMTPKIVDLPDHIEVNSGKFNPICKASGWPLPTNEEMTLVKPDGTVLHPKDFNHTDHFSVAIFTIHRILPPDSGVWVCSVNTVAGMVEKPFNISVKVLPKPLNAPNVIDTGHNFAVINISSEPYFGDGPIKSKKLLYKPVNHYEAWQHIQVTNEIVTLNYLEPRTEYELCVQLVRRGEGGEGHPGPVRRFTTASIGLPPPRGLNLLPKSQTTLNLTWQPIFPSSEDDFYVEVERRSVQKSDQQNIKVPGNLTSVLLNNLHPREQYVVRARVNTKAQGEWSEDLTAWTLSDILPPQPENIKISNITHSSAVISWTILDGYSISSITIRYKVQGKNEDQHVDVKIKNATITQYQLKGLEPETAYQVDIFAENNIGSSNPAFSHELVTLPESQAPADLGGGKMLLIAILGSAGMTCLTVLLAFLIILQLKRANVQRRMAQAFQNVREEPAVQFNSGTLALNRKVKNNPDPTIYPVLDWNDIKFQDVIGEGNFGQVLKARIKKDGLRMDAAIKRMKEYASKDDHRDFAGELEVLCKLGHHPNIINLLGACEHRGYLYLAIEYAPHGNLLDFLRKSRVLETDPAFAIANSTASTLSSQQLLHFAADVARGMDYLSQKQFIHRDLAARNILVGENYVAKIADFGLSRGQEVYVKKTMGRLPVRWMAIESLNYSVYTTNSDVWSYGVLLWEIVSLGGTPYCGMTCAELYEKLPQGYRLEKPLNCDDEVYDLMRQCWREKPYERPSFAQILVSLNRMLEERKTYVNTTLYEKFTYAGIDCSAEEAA
T19 sequence (P36507 whole entry, the tested form may be a part): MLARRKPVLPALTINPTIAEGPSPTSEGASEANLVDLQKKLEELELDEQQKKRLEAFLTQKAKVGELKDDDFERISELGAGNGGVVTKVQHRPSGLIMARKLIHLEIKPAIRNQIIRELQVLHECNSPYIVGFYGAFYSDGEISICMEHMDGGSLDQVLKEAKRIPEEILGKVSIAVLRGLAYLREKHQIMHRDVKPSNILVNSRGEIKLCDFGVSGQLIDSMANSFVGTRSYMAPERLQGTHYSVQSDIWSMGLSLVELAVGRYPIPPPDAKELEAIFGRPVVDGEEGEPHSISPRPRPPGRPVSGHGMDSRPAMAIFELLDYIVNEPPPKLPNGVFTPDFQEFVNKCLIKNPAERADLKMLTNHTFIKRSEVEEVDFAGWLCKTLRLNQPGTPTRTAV
Chain of WNK3 (Q9BYP7 whole entry): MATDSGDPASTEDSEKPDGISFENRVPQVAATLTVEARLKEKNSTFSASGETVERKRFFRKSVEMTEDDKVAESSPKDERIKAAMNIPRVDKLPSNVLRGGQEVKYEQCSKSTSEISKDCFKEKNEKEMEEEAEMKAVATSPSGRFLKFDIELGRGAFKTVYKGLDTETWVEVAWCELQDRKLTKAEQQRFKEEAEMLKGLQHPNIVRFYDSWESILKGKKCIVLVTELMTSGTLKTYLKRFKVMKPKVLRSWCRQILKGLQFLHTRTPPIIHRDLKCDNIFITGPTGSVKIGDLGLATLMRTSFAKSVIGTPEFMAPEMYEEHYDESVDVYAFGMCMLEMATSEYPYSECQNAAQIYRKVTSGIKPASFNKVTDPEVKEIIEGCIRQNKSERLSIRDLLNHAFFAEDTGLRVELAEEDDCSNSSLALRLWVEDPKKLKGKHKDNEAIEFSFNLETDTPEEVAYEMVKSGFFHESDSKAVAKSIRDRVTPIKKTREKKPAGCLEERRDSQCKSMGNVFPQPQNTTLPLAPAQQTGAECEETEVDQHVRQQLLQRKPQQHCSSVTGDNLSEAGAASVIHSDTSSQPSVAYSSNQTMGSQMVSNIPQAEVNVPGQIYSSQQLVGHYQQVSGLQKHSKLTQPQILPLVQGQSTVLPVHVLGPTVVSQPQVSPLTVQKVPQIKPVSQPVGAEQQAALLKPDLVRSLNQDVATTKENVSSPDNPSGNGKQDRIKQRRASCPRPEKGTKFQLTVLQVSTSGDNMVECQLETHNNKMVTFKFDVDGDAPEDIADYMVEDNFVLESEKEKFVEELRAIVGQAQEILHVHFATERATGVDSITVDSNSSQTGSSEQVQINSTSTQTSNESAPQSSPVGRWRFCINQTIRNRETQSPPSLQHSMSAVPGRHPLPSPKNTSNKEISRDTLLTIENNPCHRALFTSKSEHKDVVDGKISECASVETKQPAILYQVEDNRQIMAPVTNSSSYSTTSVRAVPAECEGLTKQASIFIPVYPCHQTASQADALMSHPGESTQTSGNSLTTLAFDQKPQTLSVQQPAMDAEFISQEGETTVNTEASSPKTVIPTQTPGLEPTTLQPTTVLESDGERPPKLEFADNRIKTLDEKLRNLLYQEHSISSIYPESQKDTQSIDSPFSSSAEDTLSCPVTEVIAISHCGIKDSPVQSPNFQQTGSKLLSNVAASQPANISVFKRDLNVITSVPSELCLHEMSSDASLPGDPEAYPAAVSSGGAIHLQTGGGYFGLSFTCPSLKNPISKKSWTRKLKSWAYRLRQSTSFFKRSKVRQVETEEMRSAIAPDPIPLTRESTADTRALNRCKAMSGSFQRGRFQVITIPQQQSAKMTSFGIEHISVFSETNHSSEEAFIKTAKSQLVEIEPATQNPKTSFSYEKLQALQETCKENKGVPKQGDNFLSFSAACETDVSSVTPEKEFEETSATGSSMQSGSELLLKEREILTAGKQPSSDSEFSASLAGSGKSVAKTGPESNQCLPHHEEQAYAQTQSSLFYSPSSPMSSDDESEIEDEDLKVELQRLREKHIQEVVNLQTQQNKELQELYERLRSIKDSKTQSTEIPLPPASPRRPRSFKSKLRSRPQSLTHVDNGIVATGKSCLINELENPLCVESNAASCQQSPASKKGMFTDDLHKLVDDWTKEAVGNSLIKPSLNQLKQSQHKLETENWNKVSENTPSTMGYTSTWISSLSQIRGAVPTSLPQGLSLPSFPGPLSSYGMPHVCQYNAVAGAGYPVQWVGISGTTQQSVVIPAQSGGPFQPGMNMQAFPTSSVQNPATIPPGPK
T2 sequence (O14757 whole entry): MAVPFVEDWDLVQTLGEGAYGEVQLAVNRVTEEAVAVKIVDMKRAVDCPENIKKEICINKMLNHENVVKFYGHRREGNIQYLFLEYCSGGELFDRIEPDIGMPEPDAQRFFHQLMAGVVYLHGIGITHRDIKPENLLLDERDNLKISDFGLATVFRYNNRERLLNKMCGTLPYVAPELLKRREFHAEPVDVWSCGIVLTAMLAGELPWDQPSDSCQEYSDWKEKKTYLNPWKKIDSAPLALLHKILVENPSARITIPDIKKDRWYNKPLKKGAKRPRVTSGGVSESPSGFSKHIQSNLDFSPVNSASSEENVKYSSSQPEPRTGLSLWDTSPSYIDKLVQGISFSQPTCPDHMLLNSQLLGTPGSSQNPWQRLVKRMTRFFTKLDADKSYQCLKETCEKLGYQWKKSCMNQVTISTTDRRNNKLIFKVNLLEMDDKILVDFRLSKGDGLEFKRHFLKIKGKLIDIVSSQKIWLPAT
T16 sequence (O43353 whole entry): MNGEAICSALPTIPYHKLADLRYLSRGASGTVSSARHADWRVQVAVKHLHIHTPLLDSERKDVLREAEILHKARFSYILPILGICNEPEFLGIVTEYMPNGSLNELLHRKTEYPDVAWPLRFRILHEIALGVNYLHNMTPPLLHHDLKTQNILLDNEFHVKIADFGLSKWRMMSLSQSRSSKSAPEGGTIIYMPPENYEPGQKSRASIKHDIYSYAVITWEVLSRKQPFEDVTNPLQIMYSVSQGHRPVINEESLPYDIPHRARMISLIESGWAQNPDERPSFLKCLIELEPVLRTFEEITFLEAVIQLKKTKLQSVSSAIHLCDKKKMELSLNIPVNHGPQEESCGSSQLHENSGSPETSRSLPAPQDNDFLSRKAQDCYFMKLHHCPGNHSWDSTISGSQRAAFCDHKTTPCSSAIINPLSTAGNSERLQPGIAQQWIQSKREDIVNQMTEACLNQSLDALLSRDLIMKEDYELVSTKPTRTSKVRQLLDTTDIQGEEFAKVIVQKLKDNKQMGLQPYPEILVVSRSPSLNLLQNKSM

With `Cc1cc(Oc2cc(NC(=O)C3CC3)ncn2)ccc1NC(=O)Nc1ccc(Cl)c(C(F)(F)F)c1` [CBT-102] the “% Ctrl @ 1000 nM” value [1] was 98%, the remaining activity at 1 µM [2] was 100% and the remaining activity at 1 µM [3] was 100%. For the same compound, the remaining activity at 1 µM [4] was 100%, the remaining activity at 1 µM [5] was 90% and the remaining activity at 1 µM [6] was 93%. For the same compound, the remaining activity at 1 µM [7] was 100%, the remaining activity at 1 µM [8] was 100% and the remaining activity at 1 µM [9] was 78%. The remaining activity at 1 µM [10] was 91%, the pIC50 [11] was < 5.00 and the pIC50 [12] was 7.43. The pIC50 [13] was 6.94, the pIC50 [14] was < 5.00 and the pIC50 [15] was 8.10. The pIC50 [16] was < 5.00, the pIC50 [17] was 6.56 and the pIC50 [18] was < 5.00. The pIC50 [19] was < 5.00, the pIC50 [20] was 6.62 and the pIC50 [21] was 7.37. It also gave a pIC50 [22] of 6.38, a pIC50 [23] of 5.88 and a pIC50 [24] of 7.68. For the same compound, the pIC50 [25] was 6.97, the pIC50 [26] was < 5.00 and the pIC50 [27] was 5.87. The remaining activity at 1 µM [28] was 76%, the remaining activity at 1 µM [29] was 96% and the remaining activity at 1 µM [30] was 16%. For the same compound, the remaining activity at 1 µM [31] was 93%, the remaining activity at 1 µM [32] was 0.45% and the remaining activity at 1 µM [33] was 100%. It also gave a remaining activity at 1 µM [34] of 100% and a remaining activity at 1 µM [35] of 95%.
